Test results: patent US10016515B2, “DMA, a bis-benzimidazole, confers radioprotection to the intestine via Akt/NFκB dual pathway activation” (Jawaharlal Nehru University, priority 2016, dated 2018)
Like-named read-outs stand apart in the source and are kept apart here.

Assays:
[1] = tested on: NFκB Δp65− A549 and scramble A549 cells; experiment: Clonogenicity assay of NFκB p65 knockdown A549 cells; type: cell-based, human
Protocol: 0.8-1×10^6 A549 cells were seeded with media containing 8 μg/ml polybrene. Cells were infected with 0.5 ml lentivirus in fresh media containing polybrene and were incubated for next 24 h. Desired cells were selected against puromycin. NFκB p65 protein knockdown was checked by western blot after 3 days of selection media.
Exponentially growing scrambled and NFκB p65 knockdown A549 cells were treated with 50 μM DMA for 2 h and irradiated with 0, 2, 4, 6 and 8 Gy of radiation dose for clonogenic survival assay. % Radioprotection was calculated by following formula % of Protection in radiation treated cells=(SF(Δp65−)+DMA/SF(Δp65−))×100 where SF is survival fraction in respective conditions.

Balb/c mice [2] = type: in vivo; settings: 400 mg/kg oral before 8Gy TBI
Balb/c mice liver tissue = experiment: Biochemical estimations of antioxidant enzymes, thiols and lipid peroxidation in liver; type: in vivo, mouse; set-up: MDA level in hepatic tissues / Reduced glutathione (GSH) level in liver / GST level / GST content / SOD activity / SOD level / Total thiol contents in liver homogenates: unit not given here
Protocol: Mice hepatic tissues were homogenised using REMI homogenizer in phosphate buffer and centrifuged at 10,000×g for 15 min and aliquots of supernatant were separated. The supernatant was used for the biochemical estimations using standard spectrophotometric reported methods. The total protein was determined by the Lowry method.
The liver supernatant was incubated for 10 min and the absorbance was measured at 412 nm and total thiol content was calculated by standard method. The amount of MDA was done by reaction with thiobarbituric acid (TBA) at 532 nm by literature method.
Glutathione was measured according to the Ellman's method.
Superoxide dismutase (SOD) activity was assayed according to the Marklund and Marklund method. The activity of GST was determined by using CDNB as the substrate. The reaction mixture contained 1 mM of CDNB, 1 mM GSH in 0.1M phosphate buffer (pH 6.5). The formation of the GSH-CDNB conjugate was determined at 340 nm and the activity was calculated by using e=9.6 mM-1 cm-1.

Balb/c mice spleen = experiment: Endogenous spleen colony forming assay; type: in vivo, mouse
Protocol: Group 1, sham control (normal saline treated); Group 2, DMA treated (200 mg/kg bw); Group 3, radiation control (whole body exposure to 8Gy); Group 4, treated with DMA (200 mg/kg bw) prior to whole body exposure to 8Gy. Mice (6 animals each) were irradiated, 2 h post-administration of DMA. The mice were sacrificed on day 10 and spleens were removed, blotted free of blood, weighed and the spleen index was calculated [spleen index=(spleen weight/body weight)×100]. Subsequently spleens were fixed in Bouin's fixative for 15 min and the number of macroscopic spleen cell colonies was counted manually.

[3] = tested on: Akt/NFκB pathway in melanoma tissue of mice; experiment: Immunoblot analysis in tumor tissue; type: in vivo, mouse
Protocol: EAT and B16F10 melanoma cell line were harvested and 10×10^6 and 0.8×10^6 cells respectively were injected subcutaneously in the Balb/c mice (n=24) on the right thigh. When tumors reached 0.5 cm^3 in volume, animals were randomized and divided into 4 different groups. The first test group was treated with 50 mg/kg, i.v. DMA, second test group subjected to 8 Gy TBI. Third group received 50 mg/kg, i.v. DMA and 8 Gy TBI both. The control group was similarly administered normal saline (0.1 ml, i.v.). On every alternate days, tumor-bearing thigh of each animal was shaved, and the longest (1) and shortest diameter (b) of the tumors along with height (h) were measured with the help of a vernier calliper. Tumor weight of each animal was calculated using the formula l*b*h/2.
HEK293, MRC5 and A549 cells were treated as indicated earlier. The cell pellet was resuspended in RIPA buffer and allowed to swell on ice for 30 min. Balb/c intestine tissue and tumor tissues were homogenized in RIPA buffer. Protein concentration was determined using Bradford's Assay (Bangalore Genei). […] Signals were detected using enhanced chemiluminescence (ECL system, Pierce) on X-ray film.

Balb/c mice [4] = type: in vivo
Protocol: Balb/c mice with or without DMA treatment were placed in a specially designed, well-ventilated acrylic container and subjected to whole-body irradiation at 5, 6, 8, 9 or 10 Gray (Gy) in a single fraction.
The mice were grouped as follows: Group 1, Sham control (normal saline treated); Group 2, radiation control (whole body exposure to 8 Gy); Group 3, treated with increasing doses (100, 150, 200, 450 and 600 mg/kg bw) of DMA 2 h prior to whole body exposure to 8 Gy and Group 4 treated with similar DMA doses only. Survival study was carried out for a period of 30 days and animals were routinely monitored for their body weight, food and water intake, radiation sickness symptoms and mortality to fix the highest effective dose of DMA against radiation induced toxicity.
Mice were treated with DMA (200 mg/kg bw) prior to whole body exposure to 5, 6, 8, 9 & 10 Gy. DRF was calculated ratio of LD50/30 mice treated with both DMA and radiation to the LD50/30 of mice treated with saline and radiation. Similarly survival with different route of administration of DMA was studied at 8 and 9 Gy TBI.

Compound `COc1ccc(-c2nc3cc(-c4nc5cc(N6CCN(C)CC6)ccc5[nH]4)ccc3[nH]2)cc1OC` [DMA, 5-(4-methylpiperazin-1-yl)-2-[2′-(3,4-dimethoxyphenyl)-5′-benzimidazolyl]benzimidazole] has a DMF ([1]; NFκB Δp65− A549, 50 μM DMA 2 h) of 1.02, a DMF ([1]; scrambled sequence transfected A549, 50 μM DMA 2 h) of 1.28 and a 30-days survival rate (Balb/c mice [2]) of 90%. The Glutathione reductase activity (Balb/c mice liver tissue; DMA 2 h prior to irradiation vs irradiated group) was “significant decrease”, the SOD activity (Balb/c mice liver tissue; DMA only) was 16.96±1.35 and the GST level (Balb/c mice liver tissue; DMA only, 200 mg/kg oral) was 2.76±0.32. For the same compound, the “MDA level in hepatic tissues” value (Balb/c mice liver tissue; DMA only, 200 mg/kg oral) was 0.19±0.06, the “Reduced glutathione (GSH) level in liver” value (Balb/c mice liver tissue; DMA only, 200 mg/kg oral) was 5.07±0.09 and the “Reduced glutathione (GSH) level in liver” value (Balb/c mice liver tissue; DMA pre-treatment + 8Gy TBI) was 3.73±0.69. For the same compound, the “MDA level in hepatic tissues” value (Balb/c mice liver tissue; DMA pre-treatment + 8Gy TBI, 24 h post-irradiation) was 0.20±0.04, the “Total thiol contents in liver homogenates” value (Balb/c mice liver tissue; DMA pre-treatment + TBI) was 0.91±0.08 and the SOD level (Balb/c mice liver tissue; DMA pre-treatment to radiation (8Gy)) was 15.50±0.60. For the same compound, the GST content (Balb/c mice liver tissue; DMA prior to radiation) was 2.78±0.25, the Spleen index (Balb/c mice spleen; 200 mg/kg oral before 8Gy, day 10) was 0.33±0.02 and the Spleen index (Balb/c mice spleen; DMA treatment only, 200 mg/kg) was 0.41±0.05. The “Endogenous colony forming units” value (Balb/c mice spleen; DMA+Radiation, 10th day post-irradiation) was 11.25±1.7, the “Phosphorylated Akt level” value ([3]; DMA pretreated to irradiation of TBM vs other conditions) was “lower” and the “Akt/NFκB signaling in response to radiation” value ([3]; tumor tissues of TBM, 50 mg/kg i.v. + 8Gy TBI) was “does not modulate”. For the same compound, the Survival / radioprotection (Balb/c mice [4]; 50 mg/kg i.v. 2 h prior to 8Gy TBI) was 100%, the Survival (Balb/c mice [4]; 50 mg/kg i.v., 9Gy TBI) was 50% and the Radioprotection (Balb/c mice [4]; 50 mg/kg s.c. 3 h prior to 8Gy TBI) was 20%. The 30-days survival rate (Balb/c mice [4]; 100 mg/kg oral before 8Gy TBI) was 54%, the Survival (Balb/c mice [4]; 125 mg/kg i.p. 2 h before 8Gy) was 55% and the 30-days survival rate (Balb/c mice [4]; 150 mg/kg oral before 8Gy TBI) was 70%. For the same compound, the 30-days survival rate (Balb/c mice [4]; 200 mg/kg oral before 8Gy TBI (dose finding, FIG. 4C)) was 80%, the 30-day survival rate (Balb/c mice [4]; 200 mg/kg oral, 5Gy TBI) was 100% and the 30-day survival rate (Balb/c mice [4]; 200 mg/kg oral, 6Gy TBI) was 100%. It also gave a 30-day survival rate (Balb/c mice [4]; 200 mg/kg oral, 8Gy TBI (FIG. 4D)) of 82%, a 30-day survival rate (Balb/c mice [4]; 200 mg/kg oral, 9Gy TBI) of 18% and a 30-day survival rate (Balb/c mice [4]; 200 mg/kg oral, 10Gy TBI) of 12%. For the same compound, the “Dose reduction factor (DRF)” value (Balb/c mice [4]; 200 mg/kg oral, ratio of LD50/30, Balb/c mice) was 1.28, the “Effect of DMA by itself on rodents” value (Balb/c mice [4]; DMA only) was “no effect” and the “Body weight after TBI” value (Balb/c mice [4]; DMA pre-treated mice, after initial 9 days of radiation) was “considerable weight regain”.
